Experiments:
Format in all cases: cell-based, bovine
[1] = test system: Parasite-infected TBL3 cells; test: Cell proliferation, live cell count after trypan blue exclusion, TBL3; conditions: live cells counted after trypan blue exclusion
Experimental: All infected bovine cell lines used in this study were previously described: TBL3 cells were derived from in vitro infection of the spontaneous bovine-B lymphosarcoma cell line, BL3, with Hissar stock of T.annulata. The TpMD409 lymphocyte cell line are infected with T. parva. The culture conditions of these cell lines were previously described by Moreau et al., 1999. Cells were cultured in RPMI 1640 (Gibco-BRL, Paisley, UK), supplemented with 10% heat-inactivated Fetal calf serum, 4mM L-Glutamine, 25mM HEPES, 10µM β-mercaptoethanol and 100µg/ml penicillin/streptomycin in a humidified 5%CO2 atmosphere at 37°C. HepG2, NIH/3T3 and MEF cells lines were cultured in DMEM (Gibco-BRL, Paisley, UK), supplemented with 10% heat-inactivated Fetal calf serum, 4mM L-Glutamine, 25 mM HEPES, 10µM β-mercaptoethanol and 100µg/ml penicillin/streptomycin in a humidified 5% CO2 atmosphere at 37°C. Cell numbers, as judged by Trypan Blue exclusion test, were determined by counting cells using a Countess automated cell counter (Invitrogen, CA, USA). The anti-parasite drug Buparvaquone (BW720c) was used at 200ng/ml for 72 hours. BW720c has no effect on growth of uninfected cells. […]

[2] = test system: transcripts encoding glycolytic enzymes; test: Expression of transcripts encoding glycolytic enzymes in Theileria-infected cells
Experimental: Total cellular RNAs were extracted using an RNeasy Plus Mini Kit (Qiagen, Hilden, Germany) and parasite RNAs were extracted using the classical Trizol Protocol. cDNA synthesis was performed with the Reverse Transcriptase Superscript III (Invitrogen, CA, USA).
Quantitative PCR amplification was performed in the ABI 7500 machine (Applied Biosystems, CA, USA) using the Sybr Green reagent (Applied Biosystems, CA, USA) using the primers listed in Table 5 below. The detection of a single product was verified by dissociation curve analysis. Relative quantities of mRNA were analyzed using the delta Ct method. The βactin qPCR was used for normalization. Table 5: qPCR primers

[3] = test system: HIF1alpha transcriptional activity; test: HRE-Luciferase reporter assay
Experimental: Bovine cells were transfected with the 5xHRE (Staller et al., 2003) or CyclinD1- (Wulf et al., 2001) Luciferase reporters, using electroporation (Neon kit, Invitrogen, CA, USA). Mouse cells were transfected using Lipofectamine 2000 (Invitrogen, CA, USA). Transfections efficiencies were normalized to Renilla activity by co-transfection of a pRL-TK Renilla reporter plasmid (Promega, Ref.: E6241). Luciferase assays were performed 36h post-transfection using the Dual-Luciferase Reporter Assay System (Promega, Ref: E1980) in a microplate luminometer. Relative luminescence was represented as the ratio Firefly/Renilla luminescence, compared with the corresponding empty vector control. The 5xHRE promoter-Luciferase construct was obtained from P Staller (Biotech Research & Innovation Centre, Copenhagen, […]).

[4] = test system: FBW7 and c-Jun in TBL3 cells; test: Immunoblot of FBW7 and c-Jun protein in TBL3 cells
Experimental: Total proteins were extracted with Laemmli lysis, sonicated: 15 secs ON / 30 secs OFF for 5 min, resolved on 10.5% acrylamide/bis-acrylamide SDS-PAGE gels and transferred to nitrocellulose membranes (Thermo Fisher Scientific, MA, USA) in transfer buffer. Protein transfer was assessed by Ponceau-red staining. Membranes were blocked in Tris-buffered saline pH7.4 containing 0.1% Tween-20 and 5% milk for 1 h at room temperature. Incubations with primary antibodies were carried out at 4°C overnight using antibody dilutions as manufacturer recommendations in Trisbuffered saline pH7.4, 0.05% Tween-20 and 5% milk. Following 1 h incubation with an anti-rabbit or anti-mouse peroxidase-conjugated antibody (Sigma, St Louis, MO, USA) at room temperature, proteins were detected by chemiluminescence (Thermo Fisher Scientific, MA, USA) following the manufacturer's instructions. The following antibodies were used: Rabbit anti-TaPIN (Home-made antibody, Proteogenix, Peptide used: […]-Cys), rabbit anti-PIN1 (Cell Signaling, Ref: 3722), rabbit anti-TaActin (kindly provided by Jake Baum, Australia), rabbit anti-c-Jun (Santa Cruz, CA, USA Ref: sc1694), mouse anti-αTubulin (Sigma, Ref: T9026), , rabbit anti-HIF1α (Abcam, Cambridge, UK; Ref: ab75918), rabbit anti-Hexokinase II (Cell Signaling, Ref: C64G5), rabbit anti-PDK1 (Cell signaling, Ref: C47H1), mouse anti-HA (Roche, Ref: 11583816001), rabbit anti-FBW7 (Bethyl Laboratories, Ref: A301-721A), rabbit anti-Histone H3 (Abcam, Ref: ab1791), rabbit anti-PKM2 (Abcam, Ref: ab38237), mouse anti-Actin (Sigma, Ref: A1978) and monoclonal anti-FLAG M2-Peroxidase (Sigma, Ref: A8592). c-Jun, FBW7 or PKM2/Actin ratios were calculated after Western blot signal quantification with the Plot Lanes Analysis tool of Image J software (National Institutes of Health, Bethesda, MD, USA).

SMILES | cell proliferation [1] | expression of the transcripts encoding glycolytic enzymes [2] | drug-induced decrease in glycolytic enzyme expression on overexpression of the TaPIN A53P mutant ([2]; overexpression of TaPIN A53P) | HIF1alpha transcriptional activity [3] | FBW7 protein [4] | c-Jun levels [4]
CC(C)(C)C1CCC(CC2=C(O)C(=O)c3ccccc3C2=O)CC1 (centres unmarked) [Buparvaquone, 2-((4-tert-butylcyclohexyl)methyl)-3-hydroxy-1,4-naphthoquinone] | reduced | reduced expression | reversed | reduced | induced | reduced
CCOC(=O)CN1C(=O)c2ccc3c4c(ccc(c24)C1=O)C(=O)N(CC(=O)OCC)C3=O [PiB, benzo[Imn][3,8]phenanthroline-2,7-diacetic acid, 1,3,6,8-tetrahydro-1,3,6,8-tetraoxo-, diethyl ester] | affects TBL3 cell proliferation | reduced expression |  | reduced | induced | reduced

Source: EP2845588A1, “PIN1 inhibitors for use in the prevention and/or treatment of theileriosis, and related applications” (Centre National de la Recherche Scientifique (CNRS), priority 2013, dated 2015)
